Test results published in article PMC8929578, “In vitro and in silico evaluation of Ononis isoflavonoids as molecules targeting the central nervous system” (PLoS ONE, 2022).
“And” between values parts separate entries of the source, which are not always exact repeats. Equal values may be shown once. Read-outs that look alike come from different tables or passages of the source.

Key:
MAO-B vs MAO-A = assay: Selectivity index of ChEMBl reference structures (MAO-A and MAO-B IC50); format: biochemical, human; settings: for Selectivity: selectivity index calculated from ChEMBl IC50 values of MAO-A and MAO-B
MAO-B = settings: cited from earlier work; for IC50: in vitro; for MAO-B selectivity index: MAO-B over MAO-A
[1] = PAMPA, pH 7.4
[2] = parameters: method as in literature (reference not given); settings: ref literature (reference not given); cited from earlier work
[3] = PAMPA-BBB parallel artificial membrane permeability assay; settings: for Papp at 4 h, 100 µM: PAMPA; for Experimental log Pe value / Membrane retention: PAMPA-BBB, pH 7.4, 37°C, 4 hours, n=9, ± SD; for Experimental log Pe value: Pe in cm/s
[4] = Octanol/water partitioning, shake-flask method (log P, log D^pH); settings: n-octanol/Britton-Robinson buffer
Monoamine oxidase B = molecular target: T1, Monoamine oxidase B (Homo sapiens, UniProt P27338); settings: cited from earlier work
T1 sequence (P27338 2-520): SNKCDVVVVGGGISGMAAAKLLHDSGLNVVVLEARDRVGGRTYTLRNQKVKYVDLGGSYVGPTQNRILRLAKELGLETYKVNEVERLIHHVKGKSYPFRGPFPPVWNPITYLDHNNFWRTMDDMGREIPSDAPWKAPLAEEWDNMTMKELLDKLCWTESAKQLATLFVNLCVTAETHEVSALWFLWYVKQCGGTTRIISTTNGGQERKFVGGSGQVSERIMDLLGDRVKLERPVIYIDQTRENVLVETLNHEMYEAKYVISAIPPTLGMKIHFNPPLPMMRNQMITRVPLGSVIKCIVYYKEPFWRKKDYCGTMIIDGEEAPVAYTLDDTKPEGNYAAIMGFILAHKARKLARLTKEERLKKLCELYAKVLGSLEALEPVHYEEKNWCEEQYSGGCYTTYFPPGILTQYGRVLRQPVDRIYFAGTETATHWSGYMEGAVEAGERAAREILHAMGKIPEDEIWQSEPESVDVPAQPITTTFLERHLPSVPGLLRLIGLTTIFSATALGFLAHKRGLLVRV

Monoamine oxidase A = molecular target: T2, Monoamine oxidase A (Homo sapiens, UniProt P21397); settings: cited from earlier work
T2 sequence (P21397 1-527): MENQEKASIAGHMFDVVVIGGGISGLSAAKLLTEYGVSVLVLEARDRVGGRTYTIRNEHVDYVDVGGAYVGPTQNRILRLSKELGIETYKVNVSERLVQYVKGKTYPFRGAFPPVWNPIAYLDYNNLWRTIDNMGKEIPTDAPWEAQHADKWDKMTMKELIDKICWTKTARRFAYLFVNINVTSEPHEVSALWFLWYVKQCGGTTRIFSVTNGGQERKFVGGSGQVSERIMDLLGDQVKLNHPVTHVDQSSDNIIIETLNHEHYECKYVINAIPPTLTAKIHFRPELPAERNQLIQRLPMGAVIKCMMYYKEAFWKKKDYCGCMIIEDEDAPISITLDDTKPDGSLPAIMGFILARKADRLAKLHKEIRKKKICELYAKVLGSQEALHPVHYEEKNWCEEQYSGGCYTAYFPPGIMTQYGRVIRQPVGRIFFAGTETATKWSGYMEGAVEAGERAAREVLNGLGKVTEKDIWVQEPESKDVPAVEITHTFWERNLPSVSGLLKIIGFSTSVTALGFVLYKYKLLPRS

O=C1/C(=C/c2ccc(N3CCOCC3)cc2)Oc2cc(O)cc(O)c21 [CHEMBL1814450]
Selectivity (MAO-B vs MAO-A): 3.176

O=c1c(/C=N/c2ccc(Cl)cc2O)coc2ccccc12 [CHEMBL4086270]
Selectivity (MAO-B vs MAO-A): 0.7978

O=C1/C(=C/c2cccc(Cl)c2)Cc2cc(O)ccc21 [CHEMBL3924440]
Selectivity (MAO-B vs MAO-A): 5.233

COc1ccc2c(c1)O[C@H]1c3ccc(O)cc3OC[C@@H]21 [Medicarpin]
Experimental log P (pH 5): 3.03
Measured log D^7.4 ± SE (pH 7.4): 3.03 ± 0.02
IC50 (MAO-B): 300 nM
Experimental log Pe value ([1]; 4 h, 100 µM): -4.45
Experimental log Pe value [1]: -4.45 ± 0.04

O=C(Nc1ccc(O)c(O)c1)c1coc2ccccc2c1=O [CHEMBL1814066]
Selectivity (MAO-B vs MAO-A): 2.69

O=C1/C(=C/c2ccc(F)cc2)Cc2cc(O)ccc21 [CHEMBL3933900]
Selectivity (MAO-B vs MAO-A): 14.4468

O=C1/C(=C/c2ccc(O)cc2)Cc2cc(O)ccc21 [CHEMBL3890408]
Selectivity (MAO-B vs MAO-A): 0.6095 and 0.61

O=C1/C(=C/c2ccc(N3CCCC3)cc2)Oc2cc(O)cc(O)c21 [CHEMBL3786282]
Selectivity (MAO-B vs MAO-A): 1.1688

N#Cc1ccc(/C=C2\Cc3cc(O)ccc3C2=O)cc1 [CHEMBL3900500]
Selectivity (MAO-B vs MAO-A): 6.582

CN(C)c1ccc(/C=C2\Oc3cc(O)cc(O)c3C2=O)cc1 [CHEMBL2288402]
Selectivity (MAO-B vs MAO-A): 0.04 and 0.03923

Cn1c(=O)c2c(ncn2C)n(C)c1=O [Caffeine]
log BB literature value [2]: 0.01
Papp at 4 h, 100 µM [3]: 3.24 ×10⁻⁶ cm/s

Oc1ccc2c(c1)OC[C@H]1c3cc4c(cc3O[C@@H]21)OCO4 [Maackiain]
Measured log D^7.4 ± SE ([4]; pH 7.4, 25°C): 2.49 ± 0.02
Experimental log P ([4]; unionized form (pH 5 for isoflavones and isoflavanones)): 2.49
MAO-B selectivity index (MAO-B): 126.2
Type of MAO-B inhibition (MAO-B): reversible
IC50 (MAO-B): 680 nM
Experimental log Pe value ([1]; 4 h, 100 µM): -4.48
Experimental log Pe value [1]: -4.48 ± 0.08

O=C1/C(=C/c2cccc(Br)c2)Cc2cc(O)ccc21 [CHEMBL3979091]
Selectivity (MAO-B vs MAO-A): 10.0769

c1ccc2c(c1)OCC(C1=NCCN1)O2 (stereo not shown) [CHEMBL10316, IDAZOXAN]
pChEMBL Value, Type B (Monoamine oxidase B; MAO-B, ref ChEMBL database): 6
IC50 (Monoamine oxidase B; MAO-B, ref ChEMBL database, read-out: Standard Value (IC50), Type B): 1000 nM
pChEMBL Value, MAO B (Monoamine oxidase B; human enzyme, lines marked B, ref ChEMBl database): 6
IC50 (Monoamine oxidase B; human enzyme, lines marked B, ref ChEMBl database, read-out: Standard Value (IC50), MAO B): 1000 nM
Selectivity index (MAO-B vs MAO-A; MAO-A IC50 / MAO-B IC50 of ChEMBL reference structures): 1
pChEMBL Value, Type A (Monoamine oxidase A; MAO-A, ref ChEMBL database): 6
pChEMBL Value, MAO A (Monoamine oxidase A; human enzyme, ref ChEMBl database): 6
IC50 (Monoamine oxidase A; read-out: Standard Value (IC50), MAO A, human enzyme, ref ChEMBl database): 1000 nM
IC50 (Monoamine oxidase A; read-out: Standard Value (IC50), Type A, MAO-A, ref ChEMBL database): 1000 nM

Cc1ccc2occ(/C=N/c3cc(Cl)ccc3O)c(=O)c2c1 [CHEMBL4073506]
Selectivity (MAO-B vs MAO-A): 3.391

Cc1ccc(O)c(/N=C/c2coc3ccccc3c2=O)c1 [CHEMBL4100473]
Selectivity (MAO-B vs MAO-A): 2.956

CCN(CC)c1ccc(/C=C2\Oc3cc(O)cc(O)c3C2=O)cc1 [CHEMBL3786747]
Selectivity (MAO-B vs MAO-A): 0.3443

O=C(Nc1ccc(O)c(O)c1)c1cc(=O)c2ccccc2o1 [CHEMBL1814057]
Selectivity (MAO-B vs MAO-A): 0.07

COc1ccc(-c2coc3cc(O)ccc3c2=O)cc1O [Calycosin]
MAO-B selectivity index (MAO-B): 293.8
IC50 (MAO-B): 240 nM

O=C1/C(=C/c2cccc(F)c2)Cc2cc(O)ccc21 [CHEMBL3965044]
Selectivity (MAO-B vs MAO-A): 5.452

N#Cc1cccc(/C=C2\Cc3cc(O)ccc3C2=O)c1 [CHEMBL3971638]
Selectivity (MAO-B vs MAO-A): 3.415

COc1cc(-c2coc3cc(O)ccc3c2=O)ccc1O [Calycosin D]
logD at 1 h ([4]; pH 5): 2.48 ± 0.02
logP at 1 h ([4]; pH 5): 2.48
logD at 1 h ([4]; pH 7.4): 2.21 ± 0.04
Papp at 4 h, 100 µM ([3]; pH 7.4): 2.5 ×10⁻⁶ cm/s
Experimental log Pe value [3]: -5.60 and -5.60 ± 0.07
Membrane retention [3]: 16.49% and 16.49 ± 1.38%
BBB category from Pe ([3]; categorization of Di et al.): uncertain
BBB category from log Pe ([3]; cut-off of Könczöl et al.): well-permeating
BBB category from log Pe ([3]; cut-off of Mensch et al.): BBB-

O=C(Nc1ccc(O)cc1)c1coc2ccccc2c1=O [CHEMBL1814064]
Selectivity (MAO-B vs MAO-A): 74.375 and 74.38

O=c1c2ccccc2sc2cc(O)cc(O)c12 [CHEMBL2018439, 1,3-Dihydroxythioxanthone]
Selectivity (MAO-B vs MAO-A): 0.9333

Cc1ccc2occ(/C=N/c3ccc(Cl)cc3O)c(=O)c2c1 [CHEMBL4099570]
Selectivity (MAO-B vs MAO-A): 2.863

COc1ccc(C2CC(c3ccc(O)cc3)=NN2C(C)=O)cc1 (stereo not shown) [CHEMBL65761]
Selectivity (MAO-B vs MAO-A): 0.00125

C[C@@H]1O[C@@H](OC[C@H]2O[C@@H](Oc3c(-c4ccc(O)c(O)c4)oc4cc(O)cc(O)c4c3=O)[C@H](O)[C@@H](O)[C@@H]2O)[C@H](O)[C@H](O)[C@H]1O [Rutin]
log BB literature value [2]: -1.22
Papp at 4 h, 100 µM [3]: 0.00776 ×10⁻⁶ cm/s

COc1ccc(-c2coc3cc(O)ccc3c2=O)cc1 [Formononetin]
logD at 1 h ([4]; pH 5): 2.83 ± 0.05
logP at 1 h ([4]; pH 5): 2.83
logD at 1 h ([4]; pH 7.4): 2.73 ± 0.07
Papp at 4 h, 100 µM ([3]; pH 7.4): 10 ×10⁻⁶ cm/s
Experimental log Pe value [3]: -5.00 ± 0.11
Membrane retention [3]: 27.25% and 27.25 ± 6.43%

O=C1/C(=C/c2ccc(Cl)cc2)Cc2cc(O)ccc21 [CHEMBL3907033]
Selectivity (MAO-B vs MAO-A): 57

COc1cc2c(cc1C1COc3cc(O)ccc3C1=O)OCO2 (stereo not shown) [Onogenin]
logD at 1 h ([4]; pH 5): 3.03 ± 0.02
logP at 1 h ([4]; pH 5): 3.03
logD at 1 h ([4]; pH 7.4): 2.49 ± 0.04
Papp at 4 h, 100 µM ([3]; pH 7.4): 18.6 ×10⁻⁶ cm/s
Experimental log Pe value [3]: -4.73 ± 0.04
Membrane retention [3]: 32.51% and 31.51 ± 4.04%

O=c1c(/C=N/c2cc(F)ccc2O)coc2ccccc12 [CHEMBL4082043]
Selectivity (MAO-B vs MAO-A): 2.612

C=C[C@H]1C[N@@]2CC[C@H]1C[C@H]2[C@H](O)c1ccnc2ccc(OC)cc12 [Quinine]
log BB literature value [2]: 0.60
Papp at 4 h, 100 µM [3]: 15.5 ×10⁻⁶ cm/s

COc1ccc(C2COc3cc(O)ccc3C2=O)c(OC)c1 (stereo not shown) [Sativanone]
logD at 1 h ([4]; pH 5): 3.04 ± 0.01
logP at 1 h ([4]; pH 5): 3.04
logD at 1 h ([4]; pH 7.4): 2.75 ± 0.03
Papp at 4 h, 100 µM ([3]; pH 7.4): 17.4 ×10⁻⁶ cm/s
Experimental log Pe value [3]: -4.76 ± 0.07
Membrane retention [3]: 33.66% and 33.66 ± 4.13%

CCN(C)c1ccc(/C=C2\Oc3cc(O)cc(O)c3C2=O)cc1 [CHEMBL3786785]
Selectivity (MAO-B vs MAO-A): 0.03453

Cc1ccc2occ(/C=N/c3cc(F)ccc3O)c(=O)c2c1 [CHEMBL4090445]
Selectivity (MAO-B vs MAO-A): 1.637

COc1cccc(/C=C2\Cc3cc(O)ccc3C2=O)c1 [CHEMBL3918471]
Selectivity (MAO-B vs MAO-A): 2.527

Cc1ccc(O)c(/N=C/c2coc3ccc(C)cc3c2=O)c1 [CHEMBL4082612]
Selectivity (MAO-B vs MAO-A): 6.275

O=C1/C(=C/c2ccc(O)cc2)COc2cc(O)cc(O)c21 [CHEMBL1077616]
IC50 (Monoamine oxidase B; human enzyme, closest reference structures, ref ChEMBl database, read-out: IC50 values (MAO-B)): 8710 nM

O=C1/C(=C/c2cccc(O)c2)Cc2cc(O)ccc21 [CHEMBL3891485]
Selectivity (MAO-B vs MAO-A): 1.242 and 1.24

O=C1/C(=C/c2ccc(Br)cc2)Cc2cc(O)ccc21 [CHEMBL3950873]
Selectivity (MAO-B vs MAO-A): 198.113

O=C(O)c1ccccc1O [Salicylic acid]
log BB literature value [2]: -1.10
Papp at 4 h, 100 µM [3]: 0.00851 ×10⁻⁶ cm/s

O=C1/C(=C/c2ccc(O)c(O)c2)COc2ccccc21 [CHEMBL1766558]
Selectivity (MAO-B vs MAO-A): 33.7319 and 33.73
